ChEMBL document CHEMBL1221200, “Diarylquinolines target subunit c of mycobacterial ATP synthase” (Nat Chem Biol, 2007)
Values after ≈ are worked out from the molar mass of the structure shown. Active and inactive are the calls of the source. No cut-off for these calls is given here.

Columns and labels:
[1] = tested on: Mycobacterium tuberculosis; experiment: Antimicrobial activity against wild-type Mycobacterium tuberculosis expressing ATP synthase AtpE assessed as growth inhibition in early log-phase by 7H10 agar dilution method; format: functional, organism-based
[2] = target: ATP synthase subunit beta (Bacillus sp.) (UniProt P07677); experiment: Binding affinity to Bacillus PS3 ATP synthase subunit beta by mass spectroscopy
Sequence of ATP synthase subunit beta (Bacillus sp.) (P07677 whole entry): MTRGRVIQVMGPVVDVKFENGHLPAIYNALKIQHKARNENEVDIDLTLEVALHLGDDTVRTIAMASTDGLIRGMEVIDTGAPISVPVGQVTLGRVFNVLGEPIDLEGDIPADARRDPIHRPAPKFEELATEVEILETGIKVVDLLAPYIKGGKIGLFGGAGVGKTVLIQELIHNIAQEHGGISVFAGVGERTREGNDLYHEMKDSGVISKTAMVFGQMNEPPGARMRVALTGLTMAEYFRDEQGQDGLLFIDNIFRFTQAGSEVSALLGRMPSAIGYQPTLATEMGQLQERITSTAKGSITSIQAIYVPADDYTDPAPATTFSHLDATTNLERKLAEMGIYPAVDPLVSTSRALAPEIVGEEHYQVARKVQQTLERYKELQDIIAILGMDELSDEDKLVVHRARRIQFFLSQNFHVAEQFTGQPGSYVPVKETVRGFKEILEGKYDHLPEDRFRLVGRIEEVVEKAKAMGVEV

[3] = tested on: Mycolicibacterium smegmatis; experiment: Binding affinity to Mycobacterium smegmatis ATCC 607 ATP synthase subunit beta by mass spectroscopy
[4] = target: ATP synthase subunit alpha (Bacillus sp.) (UniProt P09219); experiment: Binding affinity to Bacillus PS3 ATP synthase subunit alpha by mass spectroscopy
Sequence of ATP synthase subunit alpha (Bacillus sp.) (P09219 whole entry): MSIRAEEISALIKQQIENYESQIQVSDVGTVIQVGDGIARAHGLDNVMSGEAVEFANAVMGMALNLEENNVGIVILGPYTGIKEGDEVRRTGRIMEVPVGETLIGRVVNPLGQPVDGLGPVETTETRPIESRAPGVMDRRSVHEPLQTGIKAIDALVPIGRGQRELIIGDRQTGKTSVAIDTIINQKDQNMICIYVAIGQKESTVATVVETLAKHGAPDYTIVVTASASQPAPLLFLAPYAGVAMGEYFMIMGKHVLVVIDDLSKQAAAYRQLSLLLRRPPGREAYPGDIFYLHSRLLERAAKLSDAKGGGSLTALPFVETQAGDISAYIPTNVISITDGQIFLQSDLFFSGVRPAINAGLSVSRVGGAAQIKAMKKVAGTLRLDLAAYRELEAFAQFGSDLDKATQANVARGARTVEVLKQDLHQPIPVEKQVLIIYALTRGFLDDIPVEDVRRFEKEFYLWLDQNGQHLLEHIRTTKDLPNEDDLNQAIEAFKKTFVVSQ

[5] = tested on: Mycolicibacterium smegmatis; experiment: Binding affinity to Mycobacterium smegmatis ATCC 607 ATP synthase subunit alpha by mass spectroscopy
[6] = target: ATP synthase subunit c (Mycobacterium tuberculosis (strain CDC 1551 / Oshkosh)) (UniProt P9WPS0); experiment: Inhibition of Mycobacterium tuberculosis ATP synthase subunit c-mediated ATP synthesis after […] by luminometry
Sequence of ATP synthase subunit c (Mycobacterium tuberculosis (strain CDC 1551 / Oshkosh)) (P9WPS0 whole entry): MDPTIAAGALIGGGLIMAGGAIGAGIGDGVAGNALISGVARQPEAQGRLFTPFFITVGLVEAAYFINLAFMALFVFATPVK

[7] = target: Putative uncharacterized protein atpE (Mycolicibacterium smegmatis, UniProt Q5TIX5); experiment: Inhibition of Mycobacterium smegmatis ATCC 607 ATP synthase subunit c-mediated ATP synthesis after 60 mins by luminometry
Sequence of Putative uncharacterized protein atpE (Q5TIX5 whole entry): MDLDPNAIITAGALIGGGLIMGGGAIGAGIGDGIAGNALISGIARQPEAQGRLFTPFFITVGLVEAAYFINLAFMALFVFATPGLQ

[8] = tested on: Mycolicibacterium smegmatis; experiment: Antimicrobial activity against Mycobacterium smegmatis ATCC 607 by alamar blue assay; format: functional
[9] = tested on: Mycobacterium tuberculosis; experiment: Antimicrobial activity against Mycobacterium tuberculosis by alamar blue assay; format: functional
[10] = target: ATP synthase subunit c (Bacillus sp., UniProt P00845); experiment: Binding affinity to Bacillus PS3 ATP synthase subunit c; set-up: species or system Bacillus sp. PS3
Sequence of ATP synthase subunit c (P00845 whole entry): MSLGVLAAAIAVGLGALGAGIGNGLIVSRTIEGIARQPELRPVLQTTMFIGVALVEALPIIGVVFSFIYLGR

[11] = Binding affinity to Bacillus PS3 ATP synthase subunit c A63P mutant; set-up: species or system Bacillus sp. PS3
[12] = tested on: Mycolicibacterium smegmatis; experiment: Antimicrobial activity against wild type Mycobacterium smegmatis ATCC 607 expressing vector pSD5 by 7H9 agar dilution method; format: functional
[13] = tested on: Mycolicibacterium smegmatis; experiment: Antimicrobial activity against wild-type Mycobacterium smegmatis ATCC 607 expressing ATP synthase AtpE subunit by 7H10 agar dilution method; format: functional
[14] = tested on: Mycolicibacterium smegmatis; experiment: Antimicrobial activity against Mycobacterium smegmatis isolate R09 expressing ATP synthase AtpE D32V mutant protein by 7H10 agar dilution method; format: functional
[15] = tested on: Mycobacterium tuberculosis; experiment: Antimicrobial activity against Mycobacterium tuberculosis H37Rv by 7H9 broth dilution method; format: functional
[16] = tested on: Mycolicibacterium smegmatis; experiment: Ratio of MIC for Mycobacterium smegmatis expressing ATP synthase AtpE D32V mutant protein to MIC for wild type Mycobacterium smegmatis ATCC 607 expressing vector pSD5; format: functional
[17] = tested on: Mycolicibacterium smegmatis; experiment: Ratio of MIC for Mycobacterium smegmatis isolate R09 expressing ATP synthase AtpE D32V mutant protein to MIC for wild type Mycobacterium smegmatis; format: functional
[18] = tested on: Mycolicibacterium smegmatis; experiment: Antimicrobial activity against Mycobacterium smegmatis ATCC 607 expressing ATP synthase AtpE subunit by 7H9 agar dilution method; format: functional
[19] = tested on: Mycolicibacterium smegmatis; experiment: Antimicrobial activity against Mycobacterium smegmatis expressing ATP synthase AtpE D32V mutant protein by 7H9 agar dilution method; format: functional
[20] = tested on: Mycobacterium tuberculosis; experiment: Antimicrobial activity against Mycobacterium tuberculosis H37Rv by […] dilution method; format: functional
[21] = tested on: Mycolicibacterium smegmatis; experiment: Antimicrobial activity against wild type Mycobacterium smegmatis ATCC 607 expressing vector pSD5 by 7H10 agar dilution method; format: functional
[22] = tested on: Mycolicibacterium smegmatis; experiment: Antimicrobial activity against wild type Mycobacterium smegmatis ATCC 607 by 7H10 agar dilution method; format: functional
[23] = tested on: Mycolicibacterium smegmatis; experiment: Antimicrobial activity against Mycobacterium smegmatis isolate R09 expressing ATP synthase AtpE D32V mutant protein by 7H9 agar dilution method; format: functional
[24] = tested on: Mycolicibacterium smegmatis; experiment: Antimicrobial activity against Mycobacterium smegmatis expressing ATP synthase AtpE D32V mutant protein by 7H10 agar dilution method; format: functional
[25] = tested on: Mycolicibacterium smegmatis; experiment: Antimicrobial activity against wild type Mycobacterium smegmatis ATCC 607 by 7H9 agar dilution method; format: functional

With `COc1nc2ccc(Br)cc2cc1[C@@H](c1ccccc1)[C@@](O)(CCN(C)C)c1cccc2ccccc12` the Activity [1] was “Active”, the Activity [2] was “Active” and the Activity [3] was “Active”. The Activity [4] was “Active”, the Activity [5] was “Active” and the inhibition [6] was “Dose-dependent effect”.

`COc1nc2ccc(Br)cc2cc1[C@H](c1ccccc1)[C@@](O)(CCN(C)C)c1cccc2ccccc12` (racemic; 1c) showed an IC50 [7] of 750 nM, an MIC90 [8] of 7 µg/mL (≈ 12.6 µM) and an MIC90 [9] of 44 µg/mL (≈ 79.2 µM).

For `COc1nc2ccc(Br)cc2cc1[C@H](c1ccccc1)[C@@](O)(CCN(C)C)c1cccc2ccccc12` (racemic; 1d), the MIC90 [8] was 0.08 µg/mL (≈ 0.144 µM) and the MIC90 [9] was 1.8 µg/mL (≈ 3.24 µM).

Work on `COc1nc2ccc(Br)cc2cc1[C@@H](c1ccccc1)[C@@](O)(CCN(C)C)c1cccc2ccccc12` (single isomer, unassigned) [BEDAQUILINE] yielded an IC50 [7] of 25 nM, an MIC90 [8] of 0.35 µg/mL (≈ 0.63 µM) and an MIC90 [9] of 8.8 µg/mL (≈ 15.8 µM).

`COc1nc2ccc(Br)cc2cc1[C@@H](c1ccccc1)[C@@](O)(CCN(C)C)c1cccc2ccccc12` [BEDAQUILINE] gave a Kd [10] of 500 nM, a Kd [11] of 1500 nM and an MIC [12] of 0.003 µg/mL (≈ 0.0054 µM). For the same compound, the MIC [13] was 0.003 µg/mL (≈ 0.0054 µM), the MIC [14] was 0.7 µg/mL (≈ 1.26 µM) and the MIC [15] was 0.03 µg/mL (≈ 0.054 µM). For the same compound, the Ratio [16] was >100, the Ratio [17] was >100 and the IC50 [7] was 2.5 nM. It also gave an MIC [18] of 0.003 µg/mL (≈ 0.0054 µM), an MIC [19] of 0.5 µg/mL (≈ 0.9 µM) and an MIC [20] of 0.05 µg/mL (≈ 0.09 µM). The MIC90 [8] was 0.004 µg/mL (≈ 0.0072 µM), the MIC [21] was 0.003 µg/mL (≈ 0.0054 µM) and the MIC [22] was 0.003 µg/mL (≈ 0.0054 µM). The MIC [23] was 0.6 µg/mL (≈ 1.08 µM), the MIC [24] was 0.4 µg/mL (≈ 0.72 µM) and the MIC90 [9] was 0.06 µg/mL (≈ 0.108 µM). For the same compound, the MIC [25] was 0.003 µg/mL (≈ 0.0054 µM).

Compound `CO[C@H]1/C=C/O[C@@]2(C)Oc3c(C)c(O)c4c(O)c(c(/C=N/N5CCN(C)CC5)c(O)c4c3C2=O)NC(=O)/C(C)=C\C=C\[C@H](C)[C@H](O)[C@@H](C)[C@@H](O)[C@@H](C)[C@H](OC(C)=O)[C@@H]1C` [RIFAMPIN] has an MIC90 ([8]; Mycolicibacterium smegmatis, ATCC 607, read-out: MIC90) of 8.2 µg/mL (≈ 9.96 µM) and an MIC90 ([9]; Mycobacterium tuberculosis, read-out: MIC90) of 0.13 µg/mL (≈ 0.158 µM).
